From ChEMBL document CHEMBL1255342, “Efficacy of benzoxazinorifamycins in a mouse model of Chlamydia pneumoniae lung infection” (2008)
Converted amounts (≈) assume the structure as drawn. “And” between values parts separate entries of the source, which are not always exact repeats. Equal entries are not always repeated.

Key:
Type in all cases: functional
Chlamydia pneumoniae [1] = experiment: Antimicrobial activity against Chlamydia pneumoniae AR39 infected in C57BL/6J mouse at 1 mg/kg, ip assessed as bacterial load measured on day 10 post infection relative to control; settings: route intraperitoneal
Chlamydia pneumoniae [2] = experiment: Antimicrobial activity against Chlamydia pneumoniae AR39 infected in C57BL/6J mouse at 3 mg/kg, ip assessed as bacterial load measured on day 10 post infection relative to control; settings: route intraperitoneal
Chlamydia pneumoniae [3] = experiment: Antimicrobial activity against Chlamydia pneumoniae TW-183 after 72 hrs by twofold dilution method; settings: TW-183, 72 h

Row | Structure (SMILES) | Efficacy (Chlamydia pneumoniae [1]) [%] | Efficacy (Chlamydia pneumoniae [2]) [%] | MIC (Chlamydia pneumoniae [3]) [ng/mL] | Efficacy (Chlamydia pneumoniae [1]; 1 mg/kg) | Efficacy (Chlamydia pneumoniae [2]; 3 mg/kg)
1 | CO[C@H]1/C=C/O[C@@]2(C)Oc3c(C)c(O)c4c(=O)c(c5oc6cc(N7CCC(C)(N(C)C)CC7)cc(O)c6nc-5c4c3C2=O)NC(=O)/C(C)=C\C=C\[C@H](C)[C@H](O)[C@@H](C)[C@@H](O)[C@@H](C)[C@H](OC(C)=O)[C@@H]1C | 0.49 | 0.56 | – | – | –
2 | CO[C@H]1/C=C/O[C@@]2(C)Oc3c(C)c(O)c4c(=O)c(c5oc6cc(N7CCN(CC(C)C)CC7)cc(O)c6nc-5c4c3C2=O)NC(=O)/C(C)=C\C=C\[C@H](C)[C@H](O)[C@@H](C)[C@@H](O)[C@@H](C)[C@H](OC(C)=O)[C@@H]1C [RIFALAZIL] | 0.24 | 1.14 | 0.25 (≈ 0.266 nM) | – | –
3 | CO[C@H]1/C=C/O[C@@]2(C)Oc3c(C)c(O)c4c(=O)c(c5oc6cc(N7CC(N(C)C)C7)cc(O)c6nc-5c4c3C2=O)NC(=O)/C(C)=C\C=C\[C@H](C)[C@H](O)[C@@H](C)[C@@H](O)[C@@H](C)[C@H](OC(C)=O)[C@@H]1C | 0.06 | 0.025 | 0.064 (≈ 0.0712 nM) | – | –
4 | CO[C@H]1/C=C/O[C@@]2(C)Oc3c(C)c(O)c4c(=O)c(c5oc6cc(N7CCN(CC8CC8)CC7)cc(O)c6nc-5c4c3C2=O)NC(=O)/C(C)=C\C=C\[C@H](C)[C@H](O)[C@@H](C)[C@@H](O)[C@@H](C)[C@H](O)[C@@H]1C | 1.34 | 15.51 | 0.064 (≈ 0.0713 nM) | – | –
5 | CO[C@H]1/C=C/O[C@@]2(C)Oc3c(C)c(O)c4c(=O)c(c5oc6cc(N7CCC(C)(C)N(C)C(C)(C)C7)cc(O)c6nc-5c4c3C2=O)NC(=O)/C(C)=C\C=C\[C@H](C)[C@H](O)[C@@H](C)[C@@H](O)[C@@H](C)[C@H](OC(C)=O)[C@@H]1C | 0.03 | <0.025 | 0.064 (≈ 0.066 nM) | – | –
6 | CO[C@H]1/C=C/O[C@@]2(C)Oc3c(C)c(O)c4c(=O)c(c5oc6cc(N7CC8CCC(C7)N8C)cc(O)c6nc-5c4c3C2=O)NC(=O)/C(C)=C\C=C\[C@H](C)[C@H](O)[C@@H](C)[C@@H](O)[C@@H](C)[C@H](OC(C)=O)[C@@H]1C | 0.14 | <0.025 | 0.125 (≈ 0.135 nM) | – | –
7 | CO[C@H]1/C=C/O[C@@]2(C)Oc3c(C)c(O)c4c(=O)c(c5oc6cc(N7CCN(C)CC7)cc(O)c6nc-5c4c3C2=O)NC(=O)/C(C)=C\C=C\[C@H](C)[C@H](O)[C@@H](C)[C@@H](O)[C@@H](C)[C@H](O)[C@@H]1C | – | – | 0.125 (≈ 0.146 nM) | 1.26% and 6.04% | 0.44% and 0.18%
